US8461362B2, “Protein phosphatase 2A-activating agents” (The Ohio State University Research Foundation, priority 2009, dated 2013)
Residues, ends and D or L forms follow the SMILES beside them. *: point of attachment. Cbz = O=C(OCc1ccccc1)*

How the values were obtained:
Sp1 = Sp1 protein expression, stability and ubiquitination in LNCaP cells; assay type: cell-based; details: proteasome inhibition, LNCaP cells treated with TS-1
Method: (§1) Cells cultured in T25 flasks were collected by scraping, and cell pellets were washed once with PBS. Cells were lysed in a lysis buffer consisting of 1% SDS, 10 mM EDTA and 50 mM Tris-HCl, pH 8.1, in the presence of a commercial protease inhibitor cocktail from Aldrich-Sigma (2 mM AEBSF, 1 mM EDTA, 130 μM bestatin, 14 μM E-64, 1 μM leupeptin, and 0.3 μM aprotinin). Following a 10-sec sonication using 20% output in a Virsonic 300 sonicator (Virtis, Gardiner N.Y.) to disrupt cellular organelles and genomic DNA, cell lysates were centrifuged at 15,200×g for 15 minutes. One μL of the suspension was used for protein determination using a colorimetric BCA assay (Pierce, Rockford, Ill.), and to the remaining solution was added an equivalent volume of 2×SDS-polyacrylamide gel electrophoresis sample loading buffer (62.5 mM Tris-HCl, pH 6.8, 4% SDS, 5% β-mercaptoethanol, 20% glycerol, and 0.1% bromophenol blue), and boiled for 5 min. Equal amounts of proteins were resolved in 8% SDS-polyacrylamide gels, and transferred to nitrocellulose membranes using a semidry transfer cell. The transblotted membrane was washed twice with Tris-buffered saline containing 0.1% Tween 20 (TBST). After blocking with TBST containing 5% nonfat milk for 40 min, the membrane was incubated with the appropriate primary antibody in TBST-1% nonfat milk at 4° C. overnight. All primary antibodies were diluted 1:1000 in 1% nonfat milk-containing TBST. After treatment with the primary antibody, the membrane was washed three times with TBST for a total of 15 min, followed by incubation with goat anti-rabbit or anti-mouse Immunoglobulin G (IgG)-horseradish peroxidase conjugates (diluted 1:2000) for 1 h at room temperature and four washes with TBST for a total of 1 h. The immunoblots were visualized by enhanced chemiluminescence.
LNCaP cells were co-transfected with 5 μg each of Flag-Sp1 and HA-ubiquitin plasmids in an Amaxa Nucleofector using a LNCaP-specific nucleofector kit. These transiently transfected cells were seeded in 6-well plates at 2×10^5 per well. After 48-h incubation, cells were exposed to VES or TS-1 at the indicated concentration for 48 h, and lysed by a radioimmunoprecipitation assay lysis buffer (Santa Cruz Biotechnology) in the presence of a freshly prepared cocktail of phosphatase and protease inhibitors (2 mmol/L AEBSF, 1 mM EDTA, 130 μM bestatin, 14 μM E-64, 1 μM leupeptin, and 0.3 μM aprotinin, 2 mM imidazole, 1 mM sodium fluoride, 1.15 mM sodium molybdate, 1 mM sodium orthovanadate, and 4 mmol/L sodium tartrate dihydrate). After centrifugation at 13,000×g for 15 min, the supernatants were collected, preincubated with protein A/G agarose (Santa Cruz Biotechnology) for 15 min, and centrifuged at 1,000×g for 5 min. Supernatant (20 μL) were stored at 4° C. to be used as input, whereas the remaining supernatant was exposed to 4 μg of anti-Sp1 antibodies at 4° C. for 12 h, followed by protein A/G agarose beads at 4° C. for another 2 h. After brief centrifugation, immunoprecipitates were collected, washed with the aforementioned lysis buffer four times, suspended in 2×SDS sample buffer, and subjected to Western blot analysis with antibodies against HA and Flag.

[1] = system: androgen-independent prostate cancer; details: minimally pretreated patients with androgen-independent prostate cancer; cited from earlier work
[2] = system: AR and its target gene product PSA in LNCaP cells; assay: Western blot of AR and PSA expression in LNCaP cells; assay type: cell-based; details: PP2A inhibitor co-treatment with VES or TS-1
Method: as §1

| SMILES | protection of Sp1 from TS-1-facilitated ablation (Sp1) | also measured |
| --- | --- | --- |
| CC(C)C[C@@H](C=O)NC(=O)[C@H](CC(C)C)NC(=O)[C@H](CC(C)C)NC(=O)OCc1ccccc1 [MG-132] (Cbz-Leu-Leu-Leu-aldehyde) | protected Sp1 from TS-1-facilitated ablation |  |
| Cn1cncc1[C@@](N)(c1ccc(Cl)cc1)c1ccc2c(c1)c(-c1cccc(Cl)c1)cc(=O)n2C [R115777] |  | anti-tumor activity in patients [1]: little anti-tumor activity |
| CC[C@H](C)[C@H](NC(=O)[C@H]([C@@H](C)CC)N(C)C(C)=O)C(=O)N[C@H](C(=O)N[C@@H](CC(C)C)C(=O)[C@@]1(C)CO1)[C@@H](C)O [epoxomicin] | protected Sp1 from TS-1-facilitated ablation |  |
| C=C1[C@@H](O)[C@@H]2O[C@]3(CC[C@H](/C=C/[C@@H](C)[C@@H]4CC(C)=C[C@@]5(O[C@H](C[C@@](C)(O)C(=O)O)CC[C@H]5O)O4)O3)CC[C@H]2O[C@@H]1[C@@H](O)C[C@H](C)[C@H]1O[C@@]2(CCCCO2)CC[C@H]1C [okadaic acid] |  | protection from VES/TS-1 suppression of phosphorylation or expression of JNK, Sp1 and AR [2]: could protect cells from the suppressive effect |
